Values after ≈ are worked out from the molar mass of the structure shown.
Experiments:
Type in all cases: functional
[1] = system: Mycobacterium tuberculosis; experiment: Antimycobacterial activity against Mycobacterium tuberculosis harbouring mmpL3 V684G mutant gene assessed as inhibition of bacterial growth by visual analysis
[2] = system: Mycobacterium tuberculosis; experiment: Antimycobacterial activity against Mycobacterium tuberculosis harbouring mmpL3 G253E mutant gene assessed as inhibition of bacterial growth by visual analysis
[3] = system: Mycobacterium tuberculosis; experiment: Antimycobacterial activity against Mycobacterium tuberculosis harbouring mmpL3 S288T mutant gene assessed as inhibition of bacterial growth by visual analysis
[4] = system: Mycobacterium tuberculosis; experiment: Antimycobacterial activity against Mycobacterium tuberculosis harbouring wild-type mmpL3 gene assessed as inhibition of bacterial growth by visual analysis
[5] = system: Mycobacterium tuberculosis; experiment: Antimycobacterial activity against Mycobacterium tuberculosis harbouring mmpL3 S591l mutant gene assessed as inhibition of bacterial growth by visual analysis
[6] = system: Mycobacterium tuberculosis; experiment: Antimycobacterial activity against Mycobacterium tuberculosis harbouring mmpL3 L189R mutant gene assessed as inhibition of bacterial growth by visual analysis
[7] = system: Mycobacterium tuberculosis; experiment: Antimycobacterial activity against Mycobacterium tuberculosis harbouring mmpL3 V684A mutant gene assessed as inhibition of bacterial growth by visual analysis
[8] = system: Mycobacterium tuberculosis; experiment: Antimycobacterial activity against Mycobacterium tuberculosis harbouring mmpL3 L567P mutant gene assessed as inhibition of bacterial growth by visual analysis
[9] = system: Mycobacterium tuberculosis; experiment: Antimycobacterial activity against Mycobacterium tuberculosis harbouring mmpL3 S309C mutant gene assessed as inhibition of bacterial growth by visual analysis
[10] = system: Mycobacterium tuberculosis; experiment: Antimycobacterial activity against Mycobacterium tuberculosis harbouring mmpL3 F644C mutant gene assessed as inhibition of bacterial growth by visual analysis

`O=C(CNc1cccc(OC(F)(F)F)c1)NC12CC3CC(CC(C3)C1)C2` gave an MIC [1] of 0.5 µg/mL (≈ 1.36 µM), an MIC [2] of 4 µg/mL (≈ 10.9 µM) and an MIC [3] of 8 µg/mL (≈ 21.7 µM). For the same molecule, the MIC [4] was 0.5 µg/mL (≈ 1.36 µM), the MIC [5] was 4 µg/mL (≈ 10.9 µM) and the MIC [6] was 2 µg/mL (≈ 5.43 µM). It also gave an MIC [7] of 1 µg/mL (≈ 2.71 µM), an MIC [8] of 2 µg/mL (≈ 5.43 µM) and an MIC [9] of 4 µg/mL (≈ 10.9 µM).
`C[C@@H]1[C@H]2C[C@@H](C[C@H]1NC(=O)CNc1cccc(Cl)c1)C2(C)C` was tested, and the MIC [1] was 2 µg/mL (≈ 6.23 µM), the MIC [2] was 4 µg/mL (≈ 12.5 µM) and the MIC [10] was 4 µg/mL (≈ 12.5 µM). For the same molecule, the MIC [3] was 16 µg/mL (≈ 49.9 µM), the MIC [4] was 1 µg/mL (≈ 3.12 µM) and the MIC [5] was 4 µg/mL (≈ 12.5 µM). For the same molecule, the MIC [6] was 4 µg/mL (≈ 12.5 µM), the MIC [7] was 2 µg/mL (≈ 6.23 µM) and the MIC [8] was 2 µg/mL (≈ 6.23 µM). For the same molecule, the MIC [9] was 8 µg/mL (≈ 24.9 µM).
In the case of `CC[C@H]1OC(=O)[C@H](C)[C@@H](O[C@H]2C[C@@](C)(OC)[C@@H](O)[C@H](C)O2)[C@H](C)[C@@H](O[C@@H]2O[C@H](C)C[C@H](N(C)C)[C@H]2O)[C@](C)(OC)C[C@@H](C)C(=O)[C@H](C)[C@@H](O)[C@]1(C)O` [CLARITHROMYCIN], the MIC [1] is reported as 0.5 µg/mL (≈ 0.668 µM), the MIC [2] is reported as 0.5 µg/mL (≈ 0.668 µM) and the MIC [10] is reported as 0.5 µg/mL (≈ 0.668 µM). It also gave an MIC [3] of 0.5 µg/mL (≈ 0.668 µM), an MIC [4] of 0.5 µg/mL (≈ 0.668 µM) and an MIC [5] of 0.5 µg/mL (≈ 0.668 µM). The MIC [6] was 0.5 µg/mL (≈ 0.668 µM), the MIC [8] was 0.5 µg/mL (≈ 0.668 µM) and the MIC [9] was 0.5 µg/mL (≈ 0.668 µM).
